Data reported in patent publication US12552783B2, “Modulators of proteolysis and associated methods of use” (Arvinas Operations, Inc., priority 2018, dated 2026).

Key:
KRas [1] = molecular target: T1, KRas (Homo sapiens, UniProt P01116, G12C); experiment: KRas degradation in SW1573 cells by Western blot, normalized to GAPDH (data of Table 14); type: cell-based; conditions: SW1573 cells
Experimental: Cell Lines, Antibodies, and Reagents. NCI-H2030 (CRL-5914) and SW1573 (CRL-2170) cells were purchased from ATCC. Both cell lines are homozygous for the G12C mutation in KRas. NCI-H2030 cells were cultured in RPMI-1640 medium containing 1% penicillin-streptomycin and 10% fetal bovine serum (FBS). SW1573 cells were cultured in DMEM containing 1% penicillin-streptomycin and 10% FBS. The KRas detection antibody (Cat. No. LS-C175665) was purchased from LifeSpan Biosciences and was used at a dilution of 1:2000. GAPDH was detected using an antibody purchased from Cell Signaling Technology (Cat. No. 5174) and was diluted 1:3000. Secondary anti-mouse and anti-rabbit detection antibodies were purchased from Cell Signaling Technology (Cat. Nos. 7076 and 7074, respectively).
Compound Treatment and Western Blotting of the Data of Table 14. Either NCI-H2030 or SW1573 cells were plated in 12-well plates and allowed to adhere overnight at 37° C. in an incubator containing 5% CO2. The following day, the medium was replaced with the appropriate medium lacking FBS to induce starvation. Cells were returned to the incubator for an additional 24 hours following media exchange. […] Cells were treated with VHL-based compounds for 24 hours and all other compounds for 72 hours. Following treatment, cells were lysed in RIPA buffer (Thermo Fisher Cat. No. 89900) containing phosphatase (Thermo Fisher Cat. No. 1861277) and protease (Thermo Fisher Cat. No. 78429) inhibitor cocktails. Lysates were cleared at 13,000 rpm for 15 minutes and supernatants were assayed for total protein concentration using the Pierce BCA assay system (Thermo Fisher Cat. No. 23225). For each sample, 10 μg total protein was resolved on a 12% Bis-Tris gel and then transferred to a nitrocellulose membrane. After blocking in 3% BSA in TBST (Tris-buffered Saline with 0.1% Tween-20) for 1 hour at room temperature, membranes were probed with the primary antibody (LS Bio Cat. No. LS-C175665) overnight at 4° C. After incubation with the secondary antibody, the following day membranes were visualized using the SuperSignal™ West Femto substrate (Thermo Fisher Cat. No. 34095). The KRas signal in each lane was normalized to GAPDH and percent degradation was either estimated as less than 25% by visual inspection (C in Table 13) or quantitated relative to the DMSO control lane using BIO-RAD Image Lab 5.2.1, and all data was plotted using GraphPad PRISM 6.07.
DC50 is the half-maximal degradation concentration—i.e., the concentration at which 50% degradation is observed. DMax is the maximum degradation efficacy is achieved—i.e., the maximal degradation observed) degradation data.

KRas [2] = molecular target: T1, KRas; experiment: KRas degradation in NCI-H2030 cells by Western blot, normalized to GAPDH (data of Table 14); type: cell-based; parameters: host or cells: NCI-H2030; conditions: for Dmax: NCI-H2030
Outline: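 Cells serum-starved 24 h, then treated at 0.3, 1 and 3 μM in 0.1% DMSO, 24 h for VHL-based compounds and 72 h for others. Lysates (10 μg protein) immunoblotted; KRas normalized to GAPDH, degradation visually estimated below 25% or quantified versus DMSO lane, giving DC50 and DMax.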

SMILES	Percent Degradation at Indicated Concentration (μM) (KRas [1]; 0.1 μM)	Percent Degradation at Indicated Concentration (μM) (KRas [1]; 0.3 μM)	Percent Degradation at Indicated Concentration (μM) (KRas [1]; 1 μM)	Percent Degradation at Indicated Concentration (μM) (KRas [2]; H2030, 0.3 μM)	Percent Degradation at Indicated Concentration (μM) (KRas [2]; H2030, 1 μM)	Percent Degradation at Indicated Concentration (μM) (KRas [2]; H2030, 3 μM)	Dmax (KRas [2]) [%]	also measured
Cc1ncsc1-c1ccc([C@H](C)NC(=O)[C@@H]2C[C@@H](O)CN2C(=O)[C@@H](NC(=O)COCCOCCOCCOCCOC2CCN(C[C@@H](C)Oc3nc(N4CCN(C(=O)C(O)O)CC4)c4cc(Cl)c(-c5cc(O)cc6ccccc56)c(F)c4n3)CC2)C(C)(C)C)cc1 [compound 247, (2S,4R)-1-((2S)-2-(tert-butyl)-17-((1-((2R)-2-((6-chloro-4-(4-(2,2-dihydroxyacetyl)piperazin-1-yl)-8-fluoro-7-(3-hydroxynaphthalen-1-yl)quinazolin-2-yl)oxy)propyl)piperidin-4-yl)oxy)-4-oxo-6,9,12,15-tetraoxa-3-azaheptadecanoyl)-4-hydroxy-N-((S)-1-(4-(4-methylthiazol-5-yl)phenyl)ethyl)pyrrolidine-2-carboxamide]	–	C (Percent Degradation: C ≤ 35)	C (Percent Degradation: C ≤ 35)	–	–	–	–	Percent Degradation at Indicated Concentration (μM) (KRas [1]; 3 μM): C (Percent Degradation: C ≤ 35)
C=CC(=O)N1CCN(c2nc(O[C@H](C)CN3CCC(OCCOCCOCCOc4cc(-c5scnc5C)ccc4CNC(=O)[C@@H]4C[C@@H](O)CN4C(=O)[C@@H](c4cc(C)no4)C(C)C)CC3)nc3c2CCN(c2cc(O)cc4ccccc24)C3)CC1 [compound 440, (2S,4R)-N-(2-(2-(2-(2-((1-((R)-2-((4-(4-acryloylpiperazin-1-yl)-7-(3-hydroxynaphthalen-1-yl)-5,6,7,8-tetrahydropyrido[3,4-d]pyrimidin-2-yl)oxy)propyl)piperidin-4-yl)oxy)ethoxy)ethoxy)ethoxy)-4-(4-methylthiazol-5-yl)benzyl)-4-hydroxy-1-((R)-3-methyl-2-(3-methylisoxazol-5-yl)butanoyl)pyrrolidine-2-carboxamide]	C (Percent Degradation: C ≤ 35)	C (Percent Degradation: C ≤ 35)	C (Percent Degradation: C ≤ 35)	–	–	–	–	–
C=CC(=O)N1CCN(c2nc(OC[C@@H]3C[C@@H](OCCOCCNc4cccc5c4C(=O)N(C4CCC(=O)NC4=O)C5=O)CN3C)nc3c2CCN(c2cccc4ccccc24)C3)C[C@@H]1CC#N (stereo partly drawn) [compound 516, 2-((2S)-1-acryloyl-4-(2-(((2S,4R)-4-(2-(2-((2-(2,6-dioxopiperidin-3-yl)-1,3-dioxoisoindolin-4-yl)amino)ethoxy)ethoxy)-1-methylpyrrolidin-2-yl)methoxy)-7-(naphthalen-1-yl)-5,6,7,8-tetrahydropyrido[3,4-d]pyrimidin-4-yl)piperazin-2-yl)acetonitrile]	C (Percent Degradation: C ≤ 35)	B (35 < B < 70)	B (35 < B < 70)	–	–	–	–	Dmax (KRas [1]): 35 to 70%
Cc1ncsc1-c1ccc([C@H](C)NC(=O)[C@@H]2C[C@@H](O)CN2C(=O)[C@@H](NC(=O)COCCOCCOCCOCCN(C)C(=O)CCNc2nc(N3CCN(C(N)=O)CC3)c3cc(Cl)c(-c4cc(O)cc5ccccc45)c(F)c3n2)C(C)(C)C)cc1 [compound 184, 4-(6-chloro-8-fluoro-2-(((S)-20-((2S,4R)-4-hydroxy-2-(((S)-1-(4-(4-methylthiazol-5-yl)phenyl)ethyl)carbamoyl)pyrrolidine-1-carbonyl)-4,21,21-trimethyl-3,18-dioxo-7,10,13,16-tetraoxa-4,19-diazadocosyl)amino)-7-(3-hydroxynaphthalen-1-yl)quinazolin-4-yl)piperazine-1-carboxamide]	–	–	–	C (Percent Degradation: C ≤ 35)	C (Percent Degradation: C ≤ 35)	C (Percent Degradation: C ≤ 35)	≤ 35	–
CN(CCOCCOc1ccc2c(c1)C(=O)N(C1CCC(=O)NC1=O)C2=O)C(=O)CCNc1nc(N2CCN(C(=O)C(O)O)CC2)c2cc(Cl)c(-c3c(O)cccc3F)c(F)c2n1 [compound 150, 3-(((R)-6-chloro-4-(4-(2,2-dihydroxyacetyl)piperazin-1-yl)-8-fluoro-7-(2-fluoro-6-hydroxyphenyl)quinazolin-2-yl)amino)-N-(2-(2-((2-(2,6-dioxopiperidin-3-yl)-1,3-dioxoisoindolin-5-yl)oxy)ethoxy)ethyl)-N-methylpropanamide]	–	–	–	–	–	–	–	Percent Degradation at Indicated Concentration (μM) (KRas [2]; H2030 cells, 0.3 μM): C (Percent Degradation: C ≤ 35); Percent Degradation at Indicated Concentration (μM) (KRas [2]; H2030 cells, 1 μM): C (Percent Degradation: C ≤ 35); Percent Degradation at Indicated Concentration (μM) (KRas [2]; H2030 cells, 3 μM): C (Percent Degradation: C ≤ 35)
C=CC(=O)N1CCN(c2nc(NCCC(=O)N(C)CCOCCOCCOCCOCC(=O)N[C@H](C(=O)N3C[C@@H](O)C[C@H]3C(=O)N[C@@H](C)c3ccc(-c4scnc4C)cc3)C(C)(C)C)nc3c(F)c(-c4cc(O)cc5ccccc45)c(Cl)cc23)CC1 [compound 199, (2S,4S)-1-((2S)-21-((4-(4-acryloylpiperazin-1-yl)-6-chloro-8-fluoro-7-(3-hydroxynaphthalen-1-yl)quinazolin-2-yl)amino)-2-(tert-butyl)-18-methyl-4,19-dioxo-6,9,12,15-tetraoxa-3,18-diazahenicosanoyl)-4-hydroxy-N-((S)-1-(4-(4-methylthiazol-5-yl)phenyl)ethyl)pyrrolidine-2-carboxamide]	–	–	–	C (Percent Degradation: C ≤ 35)	C (Percent Degradation: C ≤ 35)	C (Percent Degradation: C ≤ 35)	≤ 35	–

Continued, in another order:

Percent Degradation at Indicated Concentration (μM) (KRas [1]; 0.1 μM)	Percent Degradation at Indicated Concentration (μM) (KRas [1]; 0.3 μM)	Percent Degradation at Indicated Concentration (μM) (KRas [1]; 1 μM)	Percent Degradation at Indicated Concentration (μM) (KRas [2]; H2030, 0.3 μM)	Percent Degradation at Indicated Concentration (μM) (KRas [2]; H2030, 1 μM)	Percent Degradation at Indicated Concentration (μM) (KRas [2]; H2030, 3 μM)	Dmax (KRas [2]) [%]	SMILES	also measured
C (Percent Degradation: C ≤ 35)	C (Percent Degradation: C ≤ 35)	C (Percent Degradation: C ≤ 35)	–	–	–	–	C=CC(=O)N1CCN(c2nc(O[C@H](C)CN3CCC(OCCOCCOc4ccc5c(c4)C(=O)N(C4CCC(=O)NC4=O)C5=O)CC3)nc3c(F)c(-c4cc(O)cc5ccccc45)c(Cl)cc23)CC1 (stereo partly drawn) [compound 427, 5-(2-(2-((1-((2R)-2-((4-(4-acryloylpiperazin-1-yl)-6-chloro-8-fluoro-7-(3-hydroxynaphthalen-1-yl)quinazolin-2-yl)oxy)propyl)piperidin-4-yl)oxy)ethoxy)ethoxy)-2-(2,6-dioxopiperidin-3-yl)isoindoline-1,3-dione]	–
C (Percent Degradation: C ≤ 35)	C (Percent Degradation: C ≤ 35)	C (Percent Degradation: C ≤ 35)	–	–	–	–	C=CC(=O)N1CCN(c2nc(O[C@H](C)CN3CCC(OCCOCCOCCOCCOCCOc4ccc5c(c4)C(=O)N(C4CCC(=O)NC4=O)C5=O)CC3)nc3c2CCN(c2cc(O)cc4ccccc24)C3)CC1 (stereo partly drawn) [compound 420, 5-((14-((1-((R)-2-((4-(4-acryloylpiperazin-1-yl)-7-(3-hydroxynaphthalen-1-yl)-5,6,7,8-tetrahydropyrido[3,4-d]pylimidin-2-yl)oxy)propyl)piperidin-4-yl)oxy)-3,6,9,12-tetraoxatetradecyl)oxy)-2-(2,6-dioxopiperidin-3-yl)isoindoline-1,3-dione]	–
–	–	–	C (Percent Degradation: C ≤ 35)	C (Percent Degradation: C ≤ 35)	C (Percent Degradation: C ≤ 35)	≤ 35	C=CC(=O)N1CCN(c2nc(NCCC(=O)N(C)CCOCCOc3ccc4c(c3)C(=O)N(C3CCC(=O)NC3=O)C4=O)nc3c(F)c(-c4c(O)cccc4F)c(Cl)cc23)CC1 [compound 69, 3-(((S)-4-(4-acryloylpiperazin-1-yl)-6-chloro-8-fluoro-7-(2-fluoro-6-hydroxyphenyl)quinazolin-2-yl)amino)-N-(2-(2-((2-(2,6-dioxopiperidin-3-yl)-1,3-dioxoisoindolin-5-yl)oxy)ethoxy)ethyl)-N-methylpropanamide]	–
